What was measured:
[1] = tested on: luciferase light signal from pIB29EL (yopE-luxAB); assay: microbe, parasite or virus in culture; type: cell-based, Yersinia pseudotuberculosis; settings: for inhibition at 5 µM: read-out: Inhibition (%) of the luciferase light signal, 5 μM; for inhibition at 10 µM: read-out: Inhibition (%) of the luciferase light signal, 10 μM; for inhibition at 20 µM: read-out: Inhibition (%) of the luciferase light signal, 20 μM; for inhibition at 50 µM: read-out: Inhibition (%) of the luciferase light signal, 50 μM; for inhibition at 100 µM: read-out: Inhibition (%) of the luciferase light signal, 100 μM
[2] = tested on: luciferase light signal from pIB102EL (yopE-luxAB, wild-type); assay: microbe, parasite or virus in culture; type: cell-based, Yersinia pseudotuberculosis; settings: for Inhibition (%) of the luciferase light signal: strain pIB102EL, Table 2C
[3] = Yersinia pseudotuberculosis, strain pIB29EL, Table 2C
[4] = 10 μM, strain pIB29EL, Table 2C
[5] = 20 μM, strain pIB29EL, Table 2C
[6] = 50 μM, strain pIB29EL, Table 2C
[7] = 100 μM, strain pIB29EL, Table 2C
[8] = Yersinia pseudotuberculosis, read-out: Inhibition (%) of the luciferase light signal

Question: For `CCn1cc(C(=O)O)c(=O)c2ccc(C)nc21` [Nalidixic acid, reference compound], which IC50 ([1]; Yersinia pseudotuberculosis, read-out: IC50 (concentration resulting in 50% reduction of luciferase light emission)) is on record?
Answer: 15 µM

Question: What about the “Inhibition of light-emission (in words)” value ([1]; known antibiotics, pIB29EL) of the same compound?
Answer: dose-dependent inhibition of light-emission

Question: With `CC(=O)Oc1c(I)cc(I)cc1C(=O)Nc1ccc(F)cc1` [Compound 17] as the compound, how does the “Inhibition (%) of the luciferase light signal” value (from here on “Inhibition (%)”) ([1]; 10 μM, pIB29EL, Table 2A) read?
Answer: 36%

Question: What about the “Inhibition (%)” value ([1]; 20 μM, pIB29EL, Table 2A) of the same compound?
Answer: 42%

Question: And the “Inhibition (%)” value ([1]; 50 μM, pIB29EL, Table 2A)?
Answer: 89%

Question: And the “Inhibition (%)” value ([1]; 100 μM, pIB29EL, Table 2A)?
Answer: 90%

Question: How did the inhibition at 5 µM [1, 3] turn out when `CCCCCCCc1ccc(NC(=O)c2cc(I)cc(I)c2O)cc1` [Compound 28] was run?
Answer: 67%

Question: And the inhibition at 10 µM [1, 3]?
Answer: 90%

Question: What about the inhibition at 20 µM [1, 3] of the same compound?
Answer: 99%

Question: And the inhibition at 50 µM [1, 3]?
Answer: 99%

Question: And the inhibition at 100 µM [1, 3]?
Answer: 99%

Question: Which results are given for `CC(=O)Oc1ccccc1C(=O)Nc1ccc(Cl)cc1` [Compound 60]?
Answer: Inhibition (%) of the luciferase light signal ([1]; 5 μM, strain pIB29EL, Table 2C): 0%; Inhibition (%) of the luciferase light signal [1, 4]: 21%; Inhibition (%) of the luciferase light signal [1, 5]: 65%; Inhibition (%) of the luciferase light signal [1, 6]: 89%; Inhibition (%) of the luciferase light signal [1, 7]: 89%

Question: What does the source list for `CCCCCCc1cc(/C=N/NC(=O)c2ccc([N+](=O)[O-])cc2)c(O)cc1O` [Compound 11]?
Answer: Inhibition (%) of the luciferase light signal ([1]; 10 μM, pIB29EL, Table 2A): 30%; Inhibition (%) of the luciferase light signal ([1]; 20 μM, pIB29EL, Table 2A): 42%; Inhibition (%) of the luciferase light signal ([1]; 50 μM, pIB29EL, Table 2A): 69%; Inhibition (%) of the luciferase light signal ([1]; 100 μM, pIB29EL, Table 2A): 80%

Question: With `O=C(N/N=C/c1ccc(O)c(O)c1O)c1ccco1` [Compound 34] as the compound, how does the inhibition at 5 µM [2, 8] read?
Answer: 1%

Question: What about the inhibition at 10 µM [2, 8] of the same compound?
Answer: 5%

Question: What about the inhibition at 20 µM [2, 8] of the same compound?
Answer: 10%

Question: What about the inhibition at 50 µM [2, 8] of the same compound?
Answer: 26%

Question: And the inhibition at 100 µM [2, 8]?
Answer: 56%

Question: What does the source list for `O=C(N/N=C/c1cc(Br)ccc1O)c1cccnc1` [Compound 42]?
Answer: Inhibition (%) of the luciferase light signal ([2]; 5 μM): 0%; Inhibition (%) of the luciferase light signal ([2]; 10 μM): 9%; Inhibition (%) of the luciferase light signal ([2]; 20 μM): 16%; Inhibition (%) of the luciferase light signal ([2]; 50 μM): 49%; Inhibition (%) of the luciferase light signal ([2]; 100 μM): 59%

Question: With `CCOc1cccc(/C=N/NC(=O)c2ccc(Cl)cc2)c1O` [Compound 43] as the compound, how does the “Inhibition (%)” value ([2]; 5 μM) read?
Answer: 0%

Question: What about the “Inhibition (%)” value ([2]; 10 μM) of the same compound?
Answer: 6%

Question: And the “Inhibition (%)” value ([2]; 20 μM)?
Answer: 12%

Question: What about the “Inhibition (%)” value ([2]; 50 μM) of the same compound?
Answer: 22%

Question: What about the “Inhibition (%)” value ([2]; 100 μM) of the same compound?
Answer: 34%

Question: `O=C(Nc1ccc(Cl)cc1)c1ccccc1O` [Compound 24] was tested. Which inhibition at 5 µM [1, 3] did it give?
Answer: 7%

Question: And the inhibition at 10 µM [1, 3]?
Answer: 30%

Question: And the inhibition at 20 µM [1, 3]?
Answer: 73%

Question: And the inhibition at 50 µM [1, 3]?
Answer: 90%

Question: And the inhibition at 100 µM [1, 3]?
Answer: 88%

Question: How did the “Inhibition (%)” value ([1]; 5 μM, strain pIB29EL, Table 2C) turn out when `O=C(Nc1ccc(SC(F)(F)F)cc1)c1cc2cc(Br)ccc2c(Br)c1O` [Compound 53] was run?
Answer: 11%

Question: And the “Inhibition (%)” value [1, 4]?
Answer: 38%

Question: And the “Inhibition (%)” value [1, 5]?
Answer: 43%

Question: And the “Inhibition (%)” value [1, 6]?
Answer: 58%

Question: And the “Inhibition (%)” value [1, 7]?
Answer: 68%

Question: Which inhibition at 10 µM [1, 3] does the source give for `O=C(COc1ccccc1)N/N=C/c1c(O)ccc2ccccc12` [Compound 20] here?
Answer: 2%

Question: And the inhibition at 20 µM [1, 3]?
Answer: 5%

Question: And the inhibition at 50 µM [1, 3]?
Answer: 19%

Question: What about the inhibition at 100 µM [1, 3] of the same compound?
Answer: 48%

Question: How did the inhibition at 5 µM [1, 3] turn out when `O=C(Nc1ccc(SC(F)(F)F)cc1)c1cc(I)cc(I)c1O` [Compound 26] was run?
Answer: 15%

Question: And the inhibition at 10 µM [1, 3]?
Answer: 15%

Question: What about the inhibition at 20 µM [1, 3] of the same compound?
Answer: 41%

Question: And the inhibition at 50 µM [1, 3]?
Answer: 84%

Question: And the inhibition at 100 µM [1, 3]?
Answer: 93%

Question: `CC(=O)Oc1ccc(I)cc1C(=O)Nc1ccc(Cl)cc1` [Compound 62] was tested. Which “Inhibition (%)” value ([1]; 5 μM, strain pIB29EL, Table 2C) did it give?
Answer: 95%

Question: What about the “Inhibition (%)” value [1, 4] of the same compound?
Answer: 92%

Question: And the “Inhibition (%)” value [1, 5]?
Answer: 91%

Question: What about the “Inhibition (%)” value [1, 6] of the same compound?
Answer: 91%

Question: And the “Inhibition (%)” value [1, 7]?
Answer: 90%

From patent publication US7351861B2 (priority 2002, dated 2008)
